Kd data for one molecule are collected here from paper PMC5126721 (ACS Central Science, 2016).

The target of this experiment is lysozyme (Gallus gallus, UniProt P00698). The experiment in a line: TIMES. The class given is binding.
lysozyme, sequence (P00698 19-147): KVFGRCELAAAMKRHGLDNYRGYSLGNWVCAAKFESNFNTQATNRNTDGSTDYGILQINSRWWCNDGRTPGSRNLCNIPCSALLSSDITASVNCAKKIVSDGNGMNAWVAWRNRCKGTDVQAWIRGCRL

Turning to `CC(=O)N[C@H]1[C@H](O[C@H]2[C@H](O)[C@@H](NC(C)=O)C(O)O[C@@H]2CO)O[C@H](CO)[C@@H](O[C@@H]2O[C@H](CO)[C@@H](O)[C@H](O)[C@H]2NC(C)=O)[C@@H]1O` (stereo partly shown) [NAG3, N,N′,N″-triacetylchitotriose], the Kd (as a rule, a measure of binding affinity in units of concentration) amounted to 39.8 µM. In other words, the double-digit micromolar range.
